Measurements reported in US20090012130A1, “Strategies for Designing Drugs that Target the Sir2 Family of Enzymes” (priority 2005, published 2009).
“Also recorded” adds a separate entry of the source.

Assays:
Sir2Tm wild type [1] = target: T1, Sir2Tm wild type (Thermotoga maritima, UniProt Q9WYW0); format: biochemical; set-up: made in house; host or cells: E. coli
Method: (§1) The deacetylation activity was measured using the Fluor de Lys-SirT1 assay (Biomol), using a peptide containing amino acids 379-RHK-K(Ac)-382 of p53 as substrate. […] The reactions were carried out at 37° C. in a 50 μL reaction volume containing 50 mM Tris, pH 8, 50 mM NaCl and 400 μM fluorolabeled peptide (˜10 times KM). […] Reactions were done at least in triplicate. The data were fitted to the Michaelis-Menten equation using SigmaPlot to obtain the kinetic constants. […] The data were fitted to equation (1) using SigmaPlot (SYSTAT) to calculate the IC50 values:
(§2) vI=v0(1−(I/(IC50+I))) Equation (1)
(§3) where v0 is the initial rate of the uninhibited reaction and vI is the initial rate of the reaction at concentration I of inhibitor.

Sir2Tm-D101N mutant [2] = target: T2, Sir2Tm-D101N mutant (Thermotoga maritima, UniProt Q9WYW0, D101N); test: biochemical; format: biochemical; set-up: made in house; host or cells: E. coli; conditions: for apparent kcat of cosubstrate-dependent deacetylation / Km / IC50: Sir2Tm-D101N mutant; for Km: 400 μM fluorolabeled peptide, read-out: apparent KM for cosubstrate; for IC50: fluorolabeled p53 peptide, 37° C.
T2 sequence (Q9WYW0 whole entry D101N): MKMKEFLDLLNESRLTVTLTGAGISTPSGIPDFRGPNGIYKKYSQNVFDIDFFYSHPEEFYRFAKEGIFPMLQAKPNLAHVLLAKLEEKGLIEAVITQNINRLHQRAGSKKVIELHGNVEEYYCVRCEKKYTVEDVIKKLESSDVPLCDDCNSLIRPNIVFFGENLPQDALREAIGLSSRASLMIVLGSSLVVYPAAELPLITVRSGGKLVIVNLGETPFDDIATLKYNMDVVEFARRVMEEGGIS
Method: as §1, §2, §3

Sir2Tm wild type [3] = target: T1, Sir2Tm wild type; conditions: 0.1 mM ^14C-labelled base, 2 mM NAD^+, 500 μM acetylated p53 peptide, 37° C., 3 hours
Method: (§4) After incubation at 37° C. for 3 hours, 8 μL of each reaction was spotted on a Polygram SIL-G TLC plate (Machevey-Nagel, 20×20). The plate was developed in a pre equilibrated chamber with 80:20 ethanol:2.5 M ammonium acetate. After chromatography, the plate was air dried and exposed to a phosphorimaging screen overnight.

Sir2Tm-D101N mutant [4] = target: T2, Sir2Tm-D101N mutant; conditions: Sir2Tm-D101N mutant 2.5 mg/mL; 0.1 mM ^14C-labelled base, 2 mM NAD^+, 500 μM acetylated p53 peptide, 37° C., 3 hours
Method: as §4

T1 sequence (Q9WYW0 whole entry, the tested form may be a part): as the sequence (Q9WYW0 whole entry D101N) above, with N101D counted along it

SMILES	apparent kcat of cosubstrate-dependent deacetylation (Sir2Tm-D101N mutant [2])	Km (Sir2Tm-D101N mutant [2]) [µM]	base exchange activity (formation of labelled dinucleotide) (Sir2Tm wild type [3])	base exchange activity (formation of labelled dinucleotide) (Sir2Tm-D101N mutant [4])	further results
Nc1ncnc2c1ncn2[C@@H]1O[C@H](COP(=O)(O)OP(=O)(O)OC[C@H]2O[C@@H]([n+]3cccc(C(=O)O)c3)[C@H](O)[C@@H]2O)[C@@H](O)[C@H]1O [NAAD, nicotinic acid adenine dinucleotide]	(1.1±0.1)×10^−3 s^−1	617 ± 43			deacetylation activity with the dinucleotide as cosubstrate (Sir2Tm wild type [1]; up to 2.56 mg/ml enzyme, incubation 4 hours): no detectable deacetylation activity; also recorded: undetectable
NC(=O)c1ccc[n+]([C@@H]2O[C@H](COP(=O)([O-])OP(=O)(O)OC[C@H]3O[C@@H](n4cnc5c(N)ncnc54)[C@H](O)[C@@H]3O)[C@@H](O)[C@H]2O)c1 [NAD^+, nicotinamide adenine dinucleotide]	(1.8±0.1)×10^−3 s^−1	1170 ± 180			kcat of cosubstrate-dependent deacetylation (Sir2Tm wild type [1]): 0.170 ± 0.006 s⁻¹; Km (Sir2Tm wild type [1]; 400 μM fluorolabeled peptide, read-out: KM for cosubstrate): 53 ± 11 µM; fold increase of KM, D101N mutant versus wild type (Sir2Tm-D101N mutant [2]; Sir2Tm-D101N versus wild type Sir2Tm): 22 fold
NC(=O)c1cccnc1 [nicotinamide]			could catalyze formation of labeled NAD^+	could catalyze formation of labeled NAD^+	
O=C(O)c1cccnc1 [nicotinic acid]			cannot do; also recorded: no detectable formation of NAAD	able to synthesize ^14C-labelled NAAD	inhibition of wild type enzyme deacetylation activity (Sir2Tm wild type [1]; inhibitor added to concentrations of up to 100 mM): fail to inhibit; IC50 (Sir2Tm-D101N mutant [2]; IC50, inhibition of NAAD-dependent deacetylation activity, 2 mM NAAD): 6.2 ± 2 mM; IC50 (Sir2Tm-D101N mutant [2]; IC50, inhibition of NAD^+-dependent deacetylation activity, 2 mM NAD^+): 11.3 ± 3.3 mM
